Data taken from patent US5360909A, “Phenoxyacetic acid compounds and medical preparations containing them” (Terumo Kabushiki Kaisha, priority 1992, dated 1994).

How the values were obtained:
[1] = system: thromboxane A2 (TXA2); assay: Antagonistic effect to TXA2: contraction of isolated guinea pig tracheal strips; type: cell-based, Hartley male guinea pigs; conditions: Cavia porcellus, in vitro, TXA2 10^-7 M, Tyrode solution 37° C.
Procedure: (§1) The in vitro IC50 value of the antagonistic effect of the compounds of the present invention to TXA2 and LTD4 was obtained, using the following test system. Tracheal strips isolated from Hartley male guinea pigs (weight: 300 to 500 g) were suspended under a tension of 0.3 g in a Tyrode solution at 37° C. in an organ bath, to which a mixed gas of oxygen (95%)-carbon dioxide (5%) was introduced. After letting the above stabilize for about one hour, TXA2 (produced by Cayman Co.) or LTD4 (produced by Wako Pure Chemicals CO.) was added to the organ bath in a concentration-of 10^-7 M and 10^-8 M respectively, whereupon the contraction of the sections was measured as a standard. The strips were treated with various amounts of the compounds of Examples 1-8, whereupon the contraction of the tracheal preparations upon dosing with TXA2 or LTDS4 was again measured. From the values thus measured, the IC50 (Inhibition concentration) of the compound added was calculated. The results are shown in Table 1 below; the smaller the amount of the compound, the stronger its effectiveness.

[2] = system: leukotriene D4 (LTD4); assay: Antagonistic effect to LTD4: contraction of isolated guinea pig tracheal strips; type: cell-based, Hartley male guinea pigs; conditions: Cavia porcellus, in vitro, LTD4 10^-8 M, Tyrode solution 37° C.
Procedure: as §1

SMILES	IC50 [1]	IC50 [2]
O=C(O)COc1ccc(CCNS(=O)(=O)c2ccc(Cl)cc2)c(OCc2cccc(OCc3ccc4ccccc4n3)c2)c1 [Example 4, 4-[2-(4-chlorobenzenesulfonamido)ethyl]-3-(3-(2-quinolinemethoxy)benzyloxy]phenoxyacetic acid]	590 nM	210 nM
O=C(O)COc1ccc(CCNS(=O)(=O)c2ccc(Cl)cc2)cc1NC(=S)Nc1cccc(OCc2ccc3ccccc3n2)c1 [Example 5, 4-[2-(4-chlorobenzenesulfonamido)ethyl]-2-{3-[3-(2-quinolinemethoxy)phenyl]thioureido}phenoxyacetic acid]	25 nM	72 nM
CCCc1c(OCCCCC(=O)Nc2cc(CCNS(=O)(=O)c3ccc(Cl)cc3)ccc2OCC(=O)O)ccc(C(C)=O)c1O [Example 7, 4-[2-(4-chlorobenzenesulfonamido)ethyl]-2-[(4-acetyl-3-hydroxy-2-propyl)phenoxy-5-pentamido]phenoxyacetic acid]	19 nM	76 nM
CCCc1c(OCCCCCC(=O)Nc2cc(CCNS(=O)(=O)c3ccc(Cl)cc3)ccc2OCC(=O)O)ccc(C(C)=O)c1O [Example 8, 4-[2-(4-chlorobenzenesulfonamido)ethyl]-2-[(4-acetyl-3-hydroxy-2-propyl)phenoxy-6-hexamido]phenoxyacetic acid]	40 nM	260 nM

The next molecules have a lower IC50 [1] than those just listed; values first:

IC50 [1]	IC50 [2]	SMILES
4.2 nM	65 nM	O=C(O)COc1ccc(CCNS(=O)(=O)c2ccc(Cl)cc2)cc1NC(=O)c1cccc(OCc2ccc3ccccc3n2)c1 [Example 1, 4-[2-(4-chlorobenzenesulfonamido)ethyl]-2-[3-(2-quinolinemethoxy)benzoylamino]phenoxyacetic acid]
3.4 nM	38 nM	O=C(O)COc1ccc(CCNS(=O)(=O)c2ccccc2)cc1NC(=O)c1cccc(OCc2ccc3ccccc3n2)c1 [Example 2, 4-[2-(benzenesulfonylamino)ethyl]-2-[3-(2-quinolinemethoxy)benzoylamino]phenoxyacetic acid]
3.5 nM	8300 nM	O=C(O)COc1ccc(CCNS(=O)(=O)c2ccc(Cl)cc2)c(OCc2ccc3ccccc3n2)c1 [Example 3, 4-[2-(4-chlorobenzenesulfonamido)ethyl]-3-(2-quinolinemethoxy)phenoxyacetic acid]
8.2 nM	160 nM	CCCc1c(OCCCC(=O)Nc2cc(CCNS(=O)(=O)c3ccc(Cl)cc3)ccc2OCC(=O)O)ccc(C(C)=O)c1O [Example 6, 4-[2-(4-chlorobenzenesulfonamido)ethyl]-2-[(4-acetyl-3-hydroxy-2-propyl)phenoxy-4-butamido]phenoxyacetic acid]
